What was measured:
[1] = tested on: Putative glycerol kinase 5 (GK5); assay: TMT MS proteomics in HeLa cells, GK5 abundance; assay type: cell-based, Homo sapiens; conditions: 1 µM, 10 h, two replicates
Experimental: (§1) MS proteomics. Sample preparation. HeLa cells were seeded at 5 × 10^6 on a 10 cm plate 16 h before treatment. […] Cells were incubated at 37 °C and 5% CO2 for 10 h before harvesting. Cells were placed on ice and medium was removed and cells were washed twice with cold PBS. Cells were lysed in 0.5 ml of 100 mM Tris pH 8.0, 4% (w/v) SDS supplemented with protease inhibitor cocktail (Roche). The lysate was pulse sonicated briefly and then centrifuged at 17,000 × g for 15 min at 4 °C. The supernatant fraction of cell extract was snap-frozen in liquid nitrogen and stored in −80 °C freezer. Further sample processing, digestion, desalting, labeling and fractionation were performed as previously described.
(§2) nLC-MS/MS analysis. The TMT 10plex fractions were first analyzed as previously described. Briefly, the TMT 10plex fractions were analyzed sequentially on a Q Exactive HF Hybrid Quadrupole-Orbitrap Mass Spectrometer (Thermo Scientific) coupled to an UltiMate 3000 RSLCnano UHPLC system (Thermo Scientific) and EasySpray column (75 μm × 50 cm, PepMap RSLC C18 column, 2 μm, 100 Å, Thermo Scientific). The MS2 isolation window was set to 0.4 Da and the resolution set at 120,000. MS2 resolution was set at 60,000. The AGC targets for MS1 and MS2 were set at 3e^6 ions and 1e5 ions, respectively. The normalized collision energy was set at 32%. […] After the first analysis, the TMT labeled fractions were re-analyzed on the Q-Exactive HF using the same instrument settings and a target list generated from a theoretical trypsin digest of VHL. […] After the second analysis, two fractions were further analyzed using a targeted SIM/ddMS2 method on the Q-Exactive HF. […]
(§3) Peptide and protein identification. All the raw MS data files from the three analyses were merged and searched against the Uniprot-sprot-Trembl-Human-Canonical database by Maxquant software 1.5.3.30 for protein identification and TMT reporter ion quantitation. […] Quantified proteins were filtered if the absolute fold-change difference between the two DMSO replicates was ≥ 1.5.

pVHL30 = pVHL30 (Homo sapiens, UniProt P40337); assay: Immunoblot of pVHL30 protein level in HeLa cells after compound treatment; assay type: cell-based; set-up: endogenous in cells; host or cells: HeLa; conditions: for remaining activity at 1 µM / depletion of target protein (pVHL30 / VHL): 10 h; for remaining activity at 1 µM: DMSO = 100, Fig. 4a, read-out: pVHL30 band quantification normalized to 0.1% DMSO
Dermcidin (DCD) = assay: TMT MS proteomics in HeLa cells, DCD abundance; assay type: cell-based, Homo sapiens; conditions: 1 µM, 10 h, two replicates
Experimental: as §1, §2, §3

Cullin2 = assay: Immunoblot of Cullin2 protein level in HeLa cells after compound treatment; assay type: cell-based, Human; conditions: for reduction of Cullin2 levels: 1 µM, 10 h
Experimental: Cell culture. Human cell lines HeLa, U2OS and HEK 293, purchased from ATCC, were propagated in DMEM supplemented with 10% fetal bovine serum (FBS), L- glutamine, 100 μg ml^−1 of penicillin/streptomycin at 37 °C and 5% CO2. Cells were maintained for no more than 30 passages. All cell lines were routinely tested for mycoplasma contamination using MycoAlert kit from Lonza. For compound treatment experiments, cells were transferred in six-well plates with either 3 × 10^5 or 5 × 10^5 cells per well in 2 ml of media. At 80% confluence, cells were treated with compounds at the desired concentration, reaching final DMSO concentration of 0.1% v/v. Cells were incubated at 37 °C and 5% CO2 for the desired time before harvesting.
Immunoblotting. Cells were lysed in lysis buffer (20 mM Tris pH 8, 150 mM NaCl, 1% Triton × 100) and a protease inhibitor cocktail (Roche) per 10 ml buffer. For protein extracts, the dishes were placed on ice. The media was aspirated and the tissue layer washed twice with ice-cold phosphate buffer saline (PBS). Lysis buffer (120 μl) was added and the cells detached from the surface with a cell scraper. After removal of the insoluble fraction by centrifugation, the protein concentration of the supernatant was determined by Pierce™ Coomassie (Bradford) Protein Assay Kit. Protein extracts were fractionated by SDS-PAGE on 4–12% Tris-Acetate NuPage® Novex® (Life Technologies) polyacrylamide gels and transferred to a nitrocellulose membrane using wet transfer. The membrane was then blocked with 5 % w/v Bovine serum albumin (BSA) in Tris-buffered saline (TBS) with 0.1% w/v Tween-20. […] Band quantification was performed using ImageJ software and reported as relative amount as ratio of the each protein band relative to the lane’s loading control. […]

[2] = tested on: Hypoxia response element (HRE)-luciferase reporter U2OS-HRE cells; assay: HRE-luciferase reporter assay in U2OS-HRE cells; assay type: cell-based, Human; conditions: different concentrations and times
Experimental: Luciferase assay. Assay was performed as described. Briefly, cells (HeLa and U2OS) stably expressing an HRE-luciferase reporter were treated for the indicated times with compounds. Cells were harvested in passive lysis buffer (Promega) and subjected to three freeze-thaw cycles. The soluble lysate fraction was used for assays, performed according to the manufacturer’s instructions (Promega) using a Berthold Lumat LB 9507 Luminometer. Results were normalized for protein concentration, and reported as mean ± s.e.m. from three biological replicates.

Sequence of pVHL30 (P40337 whole entry): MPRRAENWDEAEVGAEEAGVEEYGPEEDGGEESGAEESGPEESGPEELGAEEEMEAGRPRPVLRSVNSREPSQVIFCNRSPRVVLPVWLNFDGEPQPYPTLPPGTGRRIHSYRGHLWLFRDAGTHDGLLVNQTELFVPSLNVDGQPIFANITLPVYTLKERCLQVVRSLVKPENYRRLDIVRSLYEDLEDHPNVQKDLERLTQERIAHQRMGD

remaining activity at 1 µM (pVHL30; 1 µM) [%] | degradation of pVHL in time course (pVHL30; 1 µM, even in the longer time points) | depletion of target protein (pVHL30 / VHL) (pVHL30; 1 µM) | increase in cellular activity compared to parent inhibitor VH032 (pVHL30) [fold] | pVHL30 levels detected (pVHL30; 1 µM, after 24–36 h treatment) | decrease of pVHL30 level (pVHL30; 1 µM, after 2 h) [%] | decrease of pVHL30 level (pVHL30; 1 µM, after 8 h) | DC99 (complete depletion of pVHL30) (pVHL30; 4 h) [nM] | effective degrading concentrations lower than inhibitory concentrations of VH032 (pVHL30; compared to VH032) | SMILES | average normalized ratio to DMSO, GK5 [1] | average normalized ratio to DMSO, DCD (Dermcidin (DCD)) | reduction of Cullin2 levels (Cullin2) | luciferase activity relative to DMSO control [2] | decrease of cellular levels of Cullin2 (Cullin2; dose-response, 4 or 24 h, Fig. 5a)
19 | Incomplete degradation |  |  |  |  |  |  |  | Cc1ncsc1-c1ccc(CNC(=O)[C@@H]2C[C@@H](O)CN2C(=O)[C@@H](NC(=O)COCCOCCOCCOCC(=O)N[C@H](C(=O)N2C[C@H](O)C[C@H]2C(=O)NCc2ccc(-c3scnc3C)cc2)C(C)(C)C)C(C)(C)C)cc1 [CM09, N ^1 ,N ^14-bis((S)-1-((2S,4R)-4-hydroxy-2-((4-(4-methylthiazol-5-yl)benzyl)carbamoyl)pyrrolidin-1-yl)-3,3-dimethyl-1-oxobutan-2-yl)-3,6,9,12-tetraoxatetradecanediamide] | 1.05 | 1.41 |  |  | 
3 |  | total knockdown |  |  |  |  |  |  | Cc1ncsc1-c1ccc(CNC(=O)[C@@H]2C[C@@H](O)CN2C(=O)[C@@H](NC(=O)COCCOCCOCCOCCOCC(=O)N[C@H](C(=O)N2C[C@H](O)C[C@H]2C(=O)NCc2ccc(-c3scnc3C)cc2)C(C)(C)C)C(C)(C)C)cc1 [CM10, N ^1 ,N ^17-bis((S)-1-((2S,4R)-4-hydroxy-2-((4-(4-methylthiazol-5-yl)benzyl)carbamoyl)pyrrolidin-1-yl)-3,3-dimethyl-1-oxobutan-2-yl)-3,6,9,12,15-pentaoxaheptadecanediamide] | 1.22 | 1.33 | up to 22% |  | 
1 |  | total knockdown | > 1000 | up to 11% | > 70 | essentially to completion | 10 | > 3 orders of magnitude | Cc1ncsc1-c1ccc(CNC(=O)[C@@H]2C[C@@H](O)CN2C(=O)[C@@H](NC(=O)COCCOCCOCCOCCOCCOCC(=O)N[C@H](C(=O)N2C[C@H](O)C[C@H]2C(=O)NCc2ccc(-c3scnc3C)cc2)C(C)(C)C)C(C)(C)C)cc1 [CM11, N ^1 ,N ^20-bis((S)-1-((2S,4R)-4-hydroxy-2-((4-(4-methylthiazol-5-yl)benzyl)carbamoyl)pyrrolidin-1-yl)-3,3-dimethyl-1-oxobutan-2-yl)-3,6,9,12,15,18-hexaoxaicosanediamide] | 0.94 | 0.87 | up to 22% | no increase | up to 73%

From paper PMC5635026, “Homo-PROTACs: bivalent small-molecule dimerizers of the VHL E3 ubiquitin ligase to induce self-degradation” (Nature Communications, 2017)
